Measurements taken from PubChem BioAssay AID256 (DTP/NCI, 2004).
Values joined by “and” are separate entries in the source; they are usually repeats but may differ in a detail not shown here. Equal values may be shown once. Inconclusive results and toxic doses are left out.

Tested on: CD2F1 mice, L1210 leukemia ip, survival T/C
Assay: NCI In Vivo Anticancer Drug Screen. Data for tumor model L1210 Leukemia (intraperitoneal) in CD2F1 (CDF1) mice
Details: higher = longer survival
In short: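 Read-out first: treated-group measurement over vehicle-control measurement, expressed as a ratio. Animals bore a transplanted tumor line and were dosed with compound or vehicle.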

[1] = endpoint: mean survival time, dose: 50.0 mg/kg/injection, schedule: Q01DX009 (ip), vehicle: saline with Tween-80
[2] = endpoint: mean survival time, dose: 100.0 mg/kg/injection, schedule: Q01DX009 (ip), vehicle: saline with Tween-80
[3] = endpoint: mean survival time, dose: 200.0 mg/kg/injection, schedule: Q01DX009 (ip), vehicle: saline with Tween-80
[4] = endpoint: mean survival time, dose: 50.0 mg/kg/injection, schedule: Q01DX009 (ip), vehicle: Klucel (hydroxypropylcellulose) (HPC)
[5] = endpoint: mean survival time, dose: 200.0 mg/kg/injection, schedule: Q01DX001 (ip), vehicle: saline with Tween-80
[6] = endpoint: mean survival time, dose: 100.0 mg/kg/injection, schedule: Q01DX009 (ip), vehicle: Klucel (hydroxypropylcellulose) (HPC)
[7] = endpoint: mean survival time, dose: 100.0 mg/kg/injection, schedule: Q04DX003 (ip), vehicle: saline with Tween-80
[8] = endpoint: mean survival time, dose: 200.0 mg/kg/injection, schedule: Q04DX003 (ip), vehicle: saline with Tween-80

## C/C(=N\n1cc(-c2ccccc2)nc1N)c1ccccc1
endpoint: mean survival time, dose: 75.0 mg/kg/injection, schedule: Q01DX001 (ip), vehicle: saline
  T/C: 91 % of control
endpoint: mean survival time, dose: 150.0 mg/kg/injection, schedule: Q01DX001 (ip), vehicle: saline
  T/C: 97 % of control
endpoint: mean survival time, dose: 300.0 mg/kg/injection, schedule: Q01DX001 (ip), vehicle: saline
  T/C: 93 % of control

## CCO/C=C1\SC(=S)N(C)C1=O
endpoint: mean survival time, dose: 15.0 mg/kg/injection, schedule: Q01DX009 (ip), vehicle: saline with Tween-80
  T/C: 90 % of control
endpoint: mean survival time, dose: 30.0 mg/kg/injection, schedule: Q01DX009 (ip), vehicle: saline with Tween-80
  T/C: 87 % of control
endpoint: mean survival time, dose: 60.0 mg/kg/injection, schedule: Q01DX009 (ip), vehicle: saline with Tween-80
  T/C: 98 % of control

## O=c1oc(-c2cc([N+](=O)[O-])ccc2Cl)nc2ccccc12
[1]
  T/C: 95 % of control
[2]
  T/C: 90 % of control
[3]
  T/C: 95 % of control

## BrC/C(=N\N1CCCCCC1)c1ccc(Br)cc1
endpoint: mean survival time, dose: 100.0 mg/kg/injection, schedule: Q01DX001 (ip), vehicle: saline
  T/C: 94 % of control
endpoint: mean survival time, dose: 200.0 mg/kg/injection, schedule: Q01DX001 (ip), vehicle: saline
  T/C: 92 % of control
endpoint: mean survival time, dose: 400.0 mg/kg/injection, schedule: Q01DX001 (ip), vehicle: saline
  T/C: 92 % of control

## CCCCCCCCCCCCCCCCCCSC1=CC(=O)C(OC)=C(OC)C1=O
endpoint: mean survival time, dose: 3.13 mg/kg/injection, schedule: Q01DX009 (ip), vehicle: Klucel (hydroxypropylcellulose) (HPC)
  T/C: 90 % of control
endpoint: mean survival time, dose: 6.25 mg/kg/injection, schedule: Q01DX009 (ip), vehicle: Klucel (hydroxypropylcellulose) (HPC)
  T/C: 88 % of control
[4]
  T/C: 94 % of control

## c1ccc(CCc2ccnc3ccccc23)cc1
[1]
  T/C: 94 % of control
[2]
  T/C: 98 % of control
[3]
  T/C: 100 % of control

## O=CN(O)CC(=O)O.[Zn]
endpoint: mean survival time, dose: 12.5 mg/kg/injection, schedule: Q04DX003 (ip), vehicle: saline
  T/C: 96 % of control
endpoint: mean survival time, dose: 25.0 mg/kg/injection, schedule: Q04DX003 (ip), vehicle: saline
  T/C: 95 % of control

## ClC(Cl)(Cl)c1nc(C(Cl)(Cl)Cl)nc(C(Cl)(Cl)Cl)n1
endpoint: mean survival time, dose: 100.0 mg/kg/injection, schedule: Q04DX003 (ip), vehicle: Klucel (hydroxypropylcellulose) (HPC)
  T/C: 97 % of control
endpoint: mean survival time, dose: 200.0 mg/kg/injection, schedule: Q04DX003 (ip), vehicle: Klucel (hydroxypropylcellulose) (HPC)
  T/C: 87 % of control
endpoint: mean survival time, dose: 400.0 mg/kg/injection, schedule: Q04DX003 (ip), vehicle: Klucel (hydroxypropylcellulose) (HPC)
  T/C: 91 % of control

## NC(=S)OCCCCCn1cnc2c(=S)nc[nH]c21
endpoint: mean survival time, dose: 100.0 mg/kg/injection, schedule: Q01DX001 (ip), vehicle: saline with Tween-80
  T/C: 95 % of control
[5]
  T/C: 97 % of control
endpoint: mean survival time, dose: 400.0 mg/kg/injection, schedule: Q01DX001 (ip), vehicle: saline with Tween-80
  T/C: 105 % of control

## O=C(O)c1cc(=O)cc(C(=O)O)o1
endpoint: mean survival time, dose: 25.0 mg/kg/injection, schedule: Q01DX009 (ip), vehicle: saline with Tween-80
  T/C: 91 % of control
[4]
  T/C: 91 % of control
[1]
  T/C: 90 % of control
[6]
  T/C: 91 % of control
[2]
  T/C: 95 % of control

## Nc1nc(-c2ccccc2)c(CCCNc2ccc(C(=O)NC(CCC(=O)O)C(=O)O)cc2)c(=O)[nH]1 (stereo unspecified)
endpoint: mean survival time, dose: 100.0 mg/kg/injection, schedule: Q01DX009 (ip), vehicle: saline
  T/C: 94 % of control
endpoint: mean survival time, dose: 200.0 mg/kg/injection, schedule: Q01DX009 (ip), vehicle: saline
  T/C: 96 % of control

## O=C(Nc1ccccc1)c1c(O)[nH]c(=O)[nH]c1=O
endpoint: median survival time, dose: 25.0 mg/kg/injection, schedule: Q01DX009 (ip), vehicle: saline with Tween-80
  T/C: 112 % of control [middle of 5 runs]
endpoint: median survival time, dose: 50.0 mg/kg/injection, schedule: Q01DX009 (ip), vehicle: saline with Tween-80
  T/C: 124 % of control and 112 % of control and 108 % of control
endpoint: median survival time, dose: 200.0 mg/kg/injection, schedule: Q01DX009 (ip), vehicle: saline with Tween-80
  T/C: 166 % of control and 179 % of control and 211 % of control
endpoint: median survival time, dose: 400.0 mg/kg/injection, schedule: Q01DX009 (ip), vehicle: saline with Tween-80
  T/C: 233 % of control

## Cc1ccccc1CS
[2]
  T/C: 93 % of control
[7]
  T/C: 103 % of control
[3]
  T/C: 94 % of control
[8]
  T/C: 100 % of control
endpoint: mean survival time, dose: 400.0 mg/kg/injection, schedule: Q04DX003 (ip), vehicle: saline with Tween-80
  T/C: 104 % of control

## C=CCc1cccc(OC)c1OCCN(CC)CC
endpoint: mean survival time, dose: 5.0 mg/kg/injection, schedule: Q01DX009 (ip), vehicle: saline with Tween-80
  T/C: 102 % of control
endpoint: mean survival time, dose: 5.0 mg/kg/injection, schedule: Q04DX003 (ip), vehicle: saline with Tween-80
  T/C: 94 % of control
endpoint: mean survival time, dose: 10.0 mg/kg/injection, schedule: Q01DX009 (ip), vehicle: saline with Tween-80
  T/C: 96 % of control
endpoint: mean survival time, dose: 10.0 mg/kg/injection, schedule: Q04DX003 (ip), vehicle: saline with Tween-80
  T/C: 96 % of control
endpoint: mean survival time, dose: 20.0 mg/kg/injection, schedule: Q01DX009 (ip), vehicle: saline with Tween-80
  T/C: 91 % of control
endpoint: mean survival time, dose: 20.0 mg/kg/injection, schedule: Q04DX003 (ip), vehicle: saline with Tween-80
  T/C: 96 % of control

## CCOC(=O)CC1=Nc2c(Cl)ncnc2NN1
endpoint: mean survival time, dose: 100.0 mg/kg/injection, schedule: Q01DX001 (ip), vehicle: carboxymethylcellulose (CMC)
  T/C: 95 % of control
endpoint: mean survival time, dose: 200.0 mg/kg/injection, schedule: Q01DX001 (ip), vehicle: carboxymethylcellulose (CMC)
  T/C: 91 % of control

## COc1cc2c(cc1O)N=C[C@@H]1CCC(O)N1C2=O (mixture of isomers)
endpoint: mean survival time, dose: 0.5 mg/kg/injection, schedule: Q01DX009 (ip), vehicle: saline
  T/C: 108 % of control
endpoint: mean survival time, dose: 1.0 mg/kg/injection, schedule: Q01DX009 (ip), vehicle: saline
  T/C: 102 % of control and 108 % of control
endpoint: mean survival time, dose: 2.0 mg/kg/injection, schedule: Q01DX009 (ip), vehicle: saline
  T/C: 118 % of control and 111 % of control
endpoint: mean survival time, dose: 4.0 mg/kg/injection, schedule: Q01DX009 (ip), vehicle: saline
  T/C: 113 % of control and 117 % of control
endpoint: mean survival time, dose: 8.0 mg/kg/injection, schedule: Q01DX009 (ip), vehicle: saline
  T/C: 106 % of control and 107 % of control
endpoint: median survival time, dose: 0.1 mg/kg/injection, schedule: Q01DX005 (ip), vehicle: saline
  T/C: 102 % of control
endpoint: median survival time, dose: 0.2 mg/kg/injection, schedule: Q01DX005 (ip), vehicle: saline
  T/C: 102 % of control
endpoint: median survival time, dose: 0.4 mg/kg/injection, schedule: Q01DX005 (ip), vehicle: saline
  T/C: 102 % of control
endpoint: median survival time, dose: 0.8 mg/kg/injection, schedule: Q01DX005 (ip), vehicle: saline
  T/C: 102 % of control
endpoint: median survival time, dose: 1.6 mg/kg/injection, schedule: Q01DX005 (ip), vehicle: saline
  T/C: 107 % of control

## NC(=S)c1cccc2ccccc12
endpoint: mean survival time, dose: 100.0 mg/kg/injection, schedule: Q04DX002 (ip), vehicle: Klucel (hydroxypropylcellulose) (HPC)
  T/C: 105 % of control
endpoint: mean survival time, dose: 200.0 mg/kg/injection, schedule: Q04DX002 (ip), vehicle: Klucel (hydroxypropylcellulose) (HPC)
  T/C: 98 % of control
endpoint: mean survival time, dose: 400.0 mg/kg/injection, schedule: Q04DX002 (ip), vehicle: Klucel (hydroxypropylcellulose) (HPC)
  T/C: 110 % of control

## Cc1ccc(S(=O)(=O)SC(Cl)(Cl)Cl)cc1
endpoint: mean survival time, dose: 12.5 mg/kg/injection, schedule: Q01DX009 (ip), vehicle: saline
  T/C: 94 % of control
endpoint: mean survival time, dose: 25.0 mg/kg/injection, schedule: Q01DX009 (ip), vehicle: saline
  T/C: 102 % of control

## CCOC(=O)C1C(=O)N(Cc2ccccc2)C(=O)N1C (stereo unspecified)
endpoint: mean survival time, dose: 12.5 mg/kg/injection, schedule: Q01DX009 (ip), vehicle: other
  T/C: 98 % of control
endpoint: mean survival time, dose: 25.0 mg/kg/injection, schedule: Q01DX009 (ip), vehicle: other
  T/C: 104 % of control
endpoint: mean survival time, dose: 50.0 mg/kg/injection, schedule: Q01DX009 (ip), vehicle: other
  T/C: 100 % of control
endpoint: mean survival time, dose: 100.0 mg/kg/injection, schedule: Q01DX009 (ip), vehicle: other
  T/C: 100 % of control
endpoint: mean survival time, dose: 200.0 mg/kg/injection, schedule: Q01DX009 (ip), vehicle: other
  T/C: 100 % of control

## C[C@H]1CP(c2ccccc2)(c2ccccc2)(c2ccccc2)O[C@@]1(C(=O)c1ccccc1)c1ccccc1
[5]
  T/C: 91 % of control

## O=S(=O)(N/N=C/c1ccccc1)c1ccccc1
endpoint: mean survival time, dose: 12.5 mg/kg/injection, schedule: Q01DX009 (ip), vehicle: Klucel (hydroxypropylcellulose) (HPC)
  T/C: 97 % of control
endpoint: mean survival time, dose: 25.0 mg/kg/injection, schedule: Q01DX009 (ip), vehicle: Klucel (hydroxypropylcellulose) (HPC)
  T/C: 95 % of control
[4]
  T/C: 90 % of control
[6]
  T/C: 94 % of control
endpoint: mean survival time, dose: 200.0 mg/kg/injection, schedule: Q01DX009 (ip), vehicle: Klucel (hydroxypropylcellulose) (HPC)
  T/C: 92 % of control
endpoint: mean survival time, dose: 400.0 mg/kg/injection, schedule: Q01DX009 (ip), vehicle: Klucel (hydroxypropylcellulose) (HPC)
  T/C: 97 % of control

## [O-]/[N+](=C\c1ccccc1)c1ccccc1
[7]
  T/C: 97 % of control
[8]
  T/C: 90 % of control

## CCC(=O)Nc1ncc([N+](=O)[O-])s1
[1]
  T/C: 94 % of control
[2]
  T/C: 100 % of control
